Data on 1 compound can be found in US20100297223A1, “PHARMACEUTICAL DOSAGE FORM COMPRISING A LIQUID OR FLOWABLE CORE COMPOSITION” (ABBOTT GMBH & CO. KG, priority 2007, published 2010).

A short description of one data set: Miscibility with water. In kind it is physicochemical.
A short description of data set [1]: Water activity aw of capsule fill (Pawkit water activity meter). In kind it is physicochemical. As to conditions: fill emptied from gelatine capsules size 00, 24 h after capsule preparation. From the text:
Water activity aw is a measure of unbound free water in a system that is available to support chemical (or biological) reactions. It is defined as the vapour pressure of water divided by that of pure water at the same temperature. When a composition is in moisture equilibrium with its environment, its water activity is quantitatively equal to the relative humidity in head space of a container containing the composition, divided by 100. In particular during prolonged periods of storage, an excess of free water will migrate into the capsule shell and soften and eventually liquefy the capsule material. There are several factors that control water activity in a system. Dissolved species, e.g. salts, or sugars, interact with water through dipole-dipole, ionic, and hydrogen bonds. […] Water activity can be measured with commercially available equipment, such as the Pawkit water activity meter available from Decagon Devices, Inc. For the purposes herein, the water activity aw is suitably measured at a temperature of 25° C. […]
Twenty-four hours after the capsule preparation, the initial values of water activity and mechanical strength of the capsule shell were measured.
Capsules were stored for three months at 25° C., 60% relative humidity and 40° C., 75% relative humidity, respectively. Then, water activity and mechanical strength of the capsule shell were measured. […]

Structures are written as SMILES.

Take `CC(CCN1CCCC1=O)N1CCCC1=O` (centres unmarked) [1,3-bis-(pyrrolidon-1-yl)-butane]: the Miscibility with water entry in the data set “Miscibility with water” is on record as “miscible with water in any ratio”. In data set [1], the “aw (water activity), Initial” value is 0.12.
